Data on two compounds can be found in patent publication US8518995B2, “Methods and compositions for the treatment of irritable bowel syndrome” (MediciNova, Inc., priority 2010, dated 2013).

Data set [1] relates to subjects with the irritable bowel syndrome (IBS). Description: Effects of MN-221 on rectosigmoid motility (intraluminal pressure, systemic effects, plasma levels) in IBS subjects. It counts as in vivo, human. The text has this: In this study, subjects with the irritable bowel syndrome (IBS) are studied with regard to the effects of MN-221 on rectosigmoid motility.
Men and women aged 24-52 years are included in the study. The diagnosis of IBS is made on the basis of the following criteria: 1) symptoms lasting more than few months; 2) abdominal pain with or without relation to meals; 3) constipation or a combination of diarrhea and constipation; 4) normal colonic barium enema and sigmoidoscopy; 5) negative test for lactose intolerance; and 6) negative finding on stool culture.
The subjects are all symptomatic at the time of the study. The subjects are taking no medications of significant importance for intestinal motility. Informed consent is obtained from each subject.
After a 12 hours fast, all subjects undergo sigmoidoscopy without air insufflations. A probe with one to three polyethylene catheters is inserted through the sigmoidoscope so that the proximal catheter is about 18-20 centimeter (cm) from the anal margin, the tip of the second catheter about 5 cm below, and the third catheter is positioned just inside the internal sphincter. An about 5-cm-long balloon surrounds each of the two distal catheters. The distal balloon is inflated with about 20 milliliter (mL) of air to prevent the device from moving in the distal direction. The balloon in the upper rectum, connected to the middle catheter, is kept inflated with about 80 ml of air in 10 of the subjects and with about 60 mL in the other 2 subjects throughout the recording sessions. Each subject has the same balloon volume during the three examinations.
Intra-luminal pressure is measured from the proximal rectal balloon and the sigmoid catheter (inside diameter, about 1.67 millimeter (mm)), which is open tipped with a side orifice of about 1.5 mm diameter.
The catheter is continuously perfused with body-temperature water at 3.5 mL/h by means of an infusion pump. Pressure is transmitted to transducers (e.g., Statham P 23 Db, Statham Instruments, Hato Ray, Puerto Rico) and recorded on a Grass RPS 7C polygraph (e.g., Grass Instrument Co., Quincy, Mass.). To determine motility, the area under the pressure curves is continuously determined by integrators (such as, e.g., Grass 7P 10). As an index of contractile activity, the total area minus the area under an estimated basal pressure line is used. The principle for motility calculation is described in detail in Abrahamsson et al. Dig Dis Sci 1983, 28, 590-594.
Motility index is expressed as kPa×min (1 kPa×min=7.5 mm Hg×min). The study is randomized and double blinded. Each subject is investigated on 3 different days with not less than 5 days between each investigation to avoid any possible influence of an earlier drug infusion. After an initial rest period of 30 minutes (min), pressure is quantified for three periods of 25 min. The first period, designated the control period, is preceded by saline infusion, 1 mL/min, for 5 min. The following two test periods are each preceded by an infusion of 0.25 mg MN-221 intravenously to a total amount of 0.50 mg on the 1st day, 1.0 mg on the 2nd day, and 5 ml placebo (plus 5 mL saline) on the 3rd day.
The blood pressure and heart rate are measured by a sphygmomanometer 10 and 25 min after the end of each drug infusion. […]
Results are expressed as the mean±SEM. […]
The plasma concentration of MN-221 is determined by liquid chromatography and mass spectrometry.

In data set [2] the test system is subjects suffering from IBS. Description: Effects of MN-221 on human esophageal peristalsis (manometry, heart rate, finger tremor) in IBS subjects. Type of data set: in vivo. An excerpt: This study investigates the inhibitory influence of beta-2-adrenergic stimulation by MN-221 on esophageal motility with little to no incidence of significant adverse side effects. In the study, esophageal peristalsis is studied in subjects suffering from IBS. The subjects have no history of gastrointestinal or cardiovascular disease. Subjects are considered to have the irritable bowel syndrome if they have an abdominal pain with or without diarrhea or constipation. Relief of pain by defecation, abdominal distension, a feeling of incomplete evacuation, and/or a response to a high-residue diet are taken as useful additional symptoms. The blood picture, erythrocyte sedimentation rate, and results of sigmoidoscopy, rectal biopsy, and barium enema are normal in all subjects. The symptoms of the subjects, including dysphagia and heartburn, are recorded on data sheets for correlation with manometric findings.
Each subject is orally given MN-221, 5 mg three times daily, for 10 days. […] At each session esophageal peristaltic pressure, heart rate, and finger tremor are assessed.
Manometric studies are performed with a triple-lumen tube with each channel perfused with water, 0.5 ml/min, via a low-compliance capillary system. […] Thus, pressure is recorded about 18 cm proximal to the LES (proximal esophagus), about 10 cm proximal to the LES (middle esophagus), and about 2 cm proximal to the LES (distal esophagus).
After a resting period of 20 min., esophageal peristalsis in response to 20 wet swallows (water bolus of 5 ml, room temperature) is recorded. […] Each recording curve is coded and read by one investigator who is not aware of the subject's study day. The amplitude of the peristaltic pressure waves is measured at each recording point, and an individual mean value for the 20 swallows is calculated for each examination.
At each session, heart rate is recorded in the resting subject and calculated as a mean value for 2 min. Finger tremor are assessed with an optical method (e.g., Opto-Tremor Graph, Draco), and the middle finger of the right hand is chosen for measurement. […]

The test system of data set [3] is subjects with the irritable bowel syndrome (IBS). The following applies: including increase in systolic blood pressure and the heart rate; cited from earlier work.
Data set [4] relates to subjects suffering from IBS. Particulars: including increase in the heart rate and finger tremors; cited from earlier work.
Setting [5] is: during oral medication, 5 mg three times daily, 10 days.

On to `CN(C)C(=O)COc1ccc2c(c1)CC(NCC(O)c1ccc(O)c(CCO)c1)CC2` (single isomer, unassigned; (-)) [MN-221], for which, in data set [1] (after infusion of MN-221), the “complaints or discomfort among the subjects” value is listed as “No major complaints or discomfort”. The plasma concentrations result in data set [1] (after intravenous infusion, 0.50 and 1.0 mg total) was “within the therapeutic levels”. For the same compound, the “systolic and diastolic blood pressure and heart rate” value in data set [1] (infusion to a total of 0.50 mg intravenously) is “no significant increase in the systolic blood pressure; decrease in the diastolic blood pressure; and/or increase in the heart rate”; in data set [1] (infusion to a total of 1.0 mg intravenously), “no significant increase in systolic blood pressure; decrease in diastolic blood pressure; and/or increase in heart rate”. The adverse side effects result was “little to no adverse side effects” in data set [1] (intravenous infusion, IBS subjects) and “little to no adverse side effects” in data set [2] (oral medication, IBS subjects). In data set [2] (setting [5]), the finger tremor result is “do not change”. For the same compound, the heart rate result in data set [2] (setting [5]) is “do not change”.

Take `CC(C)(C)NCC(O)c1cc(O)cc(O)c1` (stereo not shown) [terbutaline]: the “adverse side effects (comparison drug)” value in data set [3] and in data set [4] was “undesirable incidence of significant adverse side effects” throughout.
